Measurements taken from patent publication US20040142958A1, “Combination therapy for the treatment of pain” (Neurogen Corporation, priority 2002, published 2004).

What was measured:
rats [1] = assay: CFA-induced chronic inflammatory pain, mechanical allodynia (von Frey), tolerance to morphine; format: in vivo, rat; details: once per day for four days; for withdrawal threshold from a von Frey filament: Treatment Day 4, 1 hour after treatment, ANOVA and Fisher's PLSD
Description: A positive allodynic response consists of lifting the affected paw followed immediately by licking or shaking of the paw.

rats [2] = assay: Carrageenan-induced thermal hyperalgesia, VR1 antagonist and morphine in combination; format: in vivo, rat
Description: Briefly, a constant radiant heat source is applied the animals' plantar surface of either hind paw. The time to withdrawal (ie., the amount of time that heat is applied before the animal moves its paw), otherwise described as thermal threshold or latency, determines the animal's hind paw sensitivity to heat.
Rats received oral administration of 0.1 mg/kg VR1 antagonist ([2-(2,6-dimethyl-morpholin-4-ylmethyl)-7-(3-trifluoromethyl-pyridin-2-yl)-pyrido[3,2-d]pyrimidin-4-yl]-(4-trifluoromethyl-phenyl)-amine (cis)) or vehicle alone in a solution of 2% vitamin E (d-alpha tocopheryl polyethylene glycol 1000 succinate) in distilled water. One hour later, 100 μL of 1% carrageenan was injected in the intraplantar aspect of the left paw. 2 hours after carrageenan injection, the rats were treated subcutaneously with saline or 1 mg/kg of morphine sulfate in saline. One hour after subcutaneous treatment, each rat's thermal withdrawal latency (i.e., the amount of time that heat is applied before the animal moves its paw) was determined. This latency was compared with the latency determined for each rat on the day prior to the experiment (baseline day).
The data are presented in FIG. 4, expressed as a decrease in paw withdrawal latency (latency on test day—latency on baseline day).

[3] = oral VR1 antagonist 0.3 mg/kg and subcutaneous morphine sulfate 3 mg/kg

Row | Compound | tolerance to repeated morphine dosing (rats [1]; [3]) | withdrawal threshold from a von Frey filament (rats [1]; [3]) | decrease in thermal paw withdrawal latency (carrageenan-induced thermal hyperalgesia) (rats [2]; VR1 antagonist alone, 0.1 mg/kg oral, with s.c. saline, ANOVA, Fisher's PLSD) | decrease in thermal paw withdrawal latency (carrageenan-induced thermal hyperalgesia) (rats [2]; coadministration of 1 mg/kg morphine s.c. with VR1 antagonist 0.1 mg/kg oral) | withdrawal threshold from a von Frey filament (rats [1]; oral vehicle and subcutaneous morphine sulfate 3 mg/kg) | decrease in thermal paw withdrawal latency (carrageenan-induced thermal hyperalgesia) (rats [2]; 1 mg/kg morphine s.c. with oral vehicle, 1 hour after subcutaneous treatment, ANOVA, Fisher's PLSD)
1 | C[C@@H]1CN(Cc2nc(Nc3ccc(C(F)(F)F)cc3)c3ncc(-c4ncccc4C(F)(F)F)cc3n2)C[C@H](C)O1 [VR1 antagonist, [2-(2,6-dimethyl-morpholin-4-ylmethyl)-7-(3-trifluoromethyl-pyridin-2-yl)-pyrido[3,2-d]pyrimidin-4-yl]-(4-trifluoromethyl-phenyl)-amine (cis)] | prevents tolerance to repeated morphine dosing | statistically significantly higher withdrawal thresholds than any other treatment group | statistically significant effect | greatest effect | – | –
2 | CN1CC[C@]23c4c5ccc(O)c4O[C@H]2[C@@H](O)C=C[C@H]3[C@H]1C5 [morphine, reference compound] | – | – | – | – | not significantly different from oral vehicle and subcutaneous vehicle controls | ineffective in reversing carrageenan-induced thermal hyperalgesia
